{
  "source": "patent US7118895B2",
  "about": "“Process for producing aglycon by using diglycosidase and flavor-improved food containing the aglycon and converting agent to be used in the process” (Amano Enzyme Inc., priority 2000, dated 2006)",
  "key": {"[1]": {"tested_on": "Crude diglycosidase", "assay": "Examination of substrate concentration in the conversion into isoflavone aglycons by diglycosidase using soybean materials;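 as to Decomposition efficiency: ratio of each glycoside/aglycon within its isoflavone family: percent of the isoflavone family total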", "type": "biochemical, Penicillium multicolor IAM7153", "in_short": "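Soybean materials (roasted soy flour, soymilk, defatted soybean, concentrated soy protein) at 2–30% (w/v) in 20 mM acetate pH 4.0 were reacted with crude diglycosidase at 55° C with shaking; enzyme solution added was 1.88 AU/mL. Samples taken at 0, 1, 3 and 6 h were ethanol-extracted and analyzed by HPLC.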"}, "[2]": {"tested_on": "β-Glucosidase derived from A. niger", "assay": "Reactivity toward various isoflavone glycosides (HPLC)", "type": "biochemical, Aspergillus niger", "design": "glucoside / aglycon: unit not given here", "conditions": "55 °C, pH 4.0", "in_short": "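Enzymes at 0.75 AU/mL in pH 4.0 acetate buffer were reacted at 55° C with individual isoflavone glycosides (substrate stock 2 mM in methanol) in 20 mM acetate pH 4.0. Aglycone release followed at 0, 1, 3 and 6 h: ethanol-quenched, ODS HPLC with UV 260 nm, quantified against calibration curves.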"}},
  "data": [
    {"smiles": "O=C(O)CC(=O)OC[C@H]1O[C@@H](Oc2cc(O)c3c(=O)c(-c4ccc(O)cc4)coc3c2)[C@H](O)[C@@H](O)[C@@H]1O", "note": "[malonylgenistin, 6″-O-malonylgenistin]", "values": [
      {"measurement": "Decomposition efficiency: ratio of each glycoside/aglycon within its isoflavone family", "setting": "[1]; roasted soy flour, substrate concentration 30%, heat treatment of enzyme no, reaction time 0 h", "value": "not detected"},
      {"measurement": "Decomposition efficiency: ratio of each glycoside/aglycon within its isoflavone family", "setting": "[1]; roasted soy flour, substrate concentration 30%, heat treatment of enzyme no, reaction time 1 h", "value": "not detected"},
      {"measurement": "Decomposition efficiency: ratio of each glycoside/aglycon within its isoflavone family", "setting": "[1]; roasted soy flour, substrate concentration 30%, heat treatment of enzyme no, reaction time 3 h", "value": "not detected"},
      {"measurement": "Decomposition efficiency: ratio of each glycoside/aglycon within its isoflavone family", "setting": "[1]; roasted soy flour, substrate concentration 30%, heat treatment of enzyme no, reaction time 6 h", "value": "not detected"},
      {"measurement": "Decomposition efficiency: ratio of each glycoside/aglycon within its isoflavone family", "setting": "[1]; roasted soy flour, substrate concentration 30%, heat treatment of enzyme yes, reaction time 6 h", "value": "not detected"},
      {"measurement": "Decomposition efficiency: ratio of each glycoside/aglycon within its isoflavone family", "setting": "[1]; soymilk, substrate concentration 2%, heat treatment of enzyme no, reaction time 0 h", "value": 35.0, "unit": "%"},
      {"measurement": "Decomposition efficiency: ratio of each glycoside/aglycon within its isoflavone family", "setting": "[1]; soymilk, substrate concentration 2%, heat treatment of enzyme no, reaction time 1 h", "value": 15.3, "unit": "%"},
      {"measurement": "Decomposition efficiency: ratio of each glycoside/aglycon within its isoflavone family", "setting": "[1]; soymilk, substrate concentration 2%, heat treatment of enzyme no, reaction time 3 h", "value": 3.5, "unit": "%"},
      {"measurement": "Decomposition efficiency: ratio of each glycoside/aglycon within its isoflavone family", "setting": "[1]; soymilk, substrate concentration 2%, heat treatment of enzyme no, reaction time 6 h", "value": 0.0, "unit": "%"},
      {"measurement": "Decomposition efficiency: ratio of each glycoside/aglycon within its isoflavone family", "setting": "[1]; soymilk, substrate concentration 2%, heat treatment of enzyme yes, reaction time 6 h", "value": 49.5, "unit": "%"},
      {"measurement": "Decomposition efficiency: ratio of each glycoside/aglycon within its isoflavone family", "setting": "[1]; soymilk, substrate concentration 5%, heat treatment of enzyme no, reaction time 0 h", "value": 58.2, "unit": "%"},
      {"measurement": "Decomposition efficiency: ratio of each glycoside/aglycon within its isoflavone family", "setting": "[1]; soymilk, substrate concentration 5%, heat treatment of enzyme no, reaction time 1 h", "value": 24.9, "unit": "%"},
      {"measurement": "Decomposition efficiency: ratio of each glycoside/aglycon within its isoflavone family", "setting": "[1]; soymilk, substrate concentration 5%, heat treatment of enzyme no, reaction time 3 h", "value": 6.9, "unit": "%"},
      {"measurement": "Decomposition efficiency: ratio of each glycoside/aglycon within its isoflavone family", "setting": "[1]; soymilk, substrate concentration 5%, heat treatment of enzyme no, reaction time 6 h", "value": 2.1, "unit": "%"},
      {"measurement": "Decomposition efficiency: ratio of each glycoside/aglycon within its isoflavone family", "setting": "[1]; soymilk, substrate concentration 5%, heat treatment of enzyme yes, reaction time 6 h", "value": 52.5, "unit": "%"},
      {"measurement": "Decomposition efficiency: ratio of each glycoside/aglycon within its isoflavone family", "setting": "[1]; soymilk, substrate concentration 10%, heat treatment of enzyme no, reaction time 0 h", "value": 56.5, "unit": "%"},
      {"measurement": "Decomposition efficiency: ratio of each glycoside/aglycon within its isoflavone family", "setting": "[1]; soymilk, substrate concentration 10%, heat treatment of enzyme no, reaction time 1 h", "value": 31.5, "unit": "%"},
      {"measurement": "Decomposition efficiency: ratio of each glycoside/aglycon within its isoflavone family", "setting": "[1]; soymilk, substrate concentration 10%, heat treatment of enzyme no, reaction time 3 h", "value": 11.9, "unit": "%"},
      {"measurement": "Decomposition efficiency: ratio of each glycoside/aglycon within its isoflavone family", "setting": "[1]; soymilk, substrate concentration 10%, heat treatment of enzyme no, reaction time 6 h", "value": 4.8, "unit": "%"},
      {"measurement": "Decomposition efficiency: ratio of each glycoside/aglycon within its isoflavone family", "setting": "[1]; soymilk, substrate concentration 10%, heat treatment of enzyme yes, reaction time 6 h", "value": 51.2, "unit": "%"},
      {"measurement": "Decomposition efficiency: ratio of each glycoside/aglycon within its isoflavone family", "setting": "[1]; soymilk, substrate concentration 20%, heat treatment of enzyme no, reaction time 0 h", "value": 56.3, "unit": "%"},
      {"measurement": "Decomposition efficiency: ratio of each glycoside/aglycon within its isoflavone family", "setting": "[1]; soymilk, substrate concentration 20%, heat treatment of enzyme no, reaction time 1 h", "value": 37.6, "unit": "%"},
      {"measurement": "Decomposition efficiency: ratio of each glycoside/aglycon within its isoflavone family", "setting": "[1]; soymilk, substrate concentration 20%, heat treatment of enzyme no, reaction time 3 h", "value": 15.7, "unit": "%"},
      {"measurement": "Decomposition efficiency: ratio of each glycoside/aglycon within its isoflavone family", "setting": "[1]; soymilk, substrate concentration 20%, heat treatment of enzyme no, reaction time 6 h", "value": 10.7, "unit": "%"},
      {"measurement": "Decomposition efficiency: ratio of each glycoside/aglycon within its isoflavone family", "setting": "[1]; soymilk, substrate concentration 20%, heat treatment of enzyme yes, reaction time 6 h", "value": 51.0, "unit": "%"},
      {"measurement": "Decomposition efficiency: ratio of each glycoside/aglycon within its isoflavone family", "setting": "[1]; soymilk, substrate concentration 30%, heat treatment of enzyme no, reaction time 0 h", "value": 55.9, "unit": "%"},
      {"measurement": "Decomposition efficiency: ratio of each glycoside/aglycon within its isoflavone family", "setting": "[1]; soymilk, substrate concentration 30%, heat treatment of enzyme no, reaction time 1 h", "value": 42.5, "unit": "%"},
      {"measurement": "Decomposition efficiency: ratio of each glycoside/aglycon within its isoflavone family", "setting": "[1]; soymilk, substrate concentration 30%, heat treatment of enzyme no, reaction time 3 h", "value": 25.4, "unit": "%"},
      {"measurement": "Decomposition efficiency: ratio of each glycoside/aglycon within its isoflavone family", "setting": "[1]; soymilk, substrate concentration 30%, heat treatment of enzyme no, reaction time 6 h", "value": 17.1, "unit": "%"},
      {"measurement": "Decomposition efficiency: ratio of each glycoside/aglycon within its isoflavone family", "setting": "[1]; soymilk, substrate concentration 30%, heat treatment of enzyme yes, reaction time 6 h", "value": 50.0, "unit": "%"},
      {"measurement": "Decomposition efficiency of genistin family in defatted soybean", "setting": "[1]; substrate concentration 2%, heat treatment of enzyme no, reaction time 0 h", "value": 45.4},
      {"measurement": "Decomposition efficiency of genistin family in defatted soybean", "setting": "[1]; substrate concentration 2%, heat treatment of enzyme no, reaction time 1 h", "value": 31.4},
      {"measurement": "Decomposition efficiency of genistin family in defatted soybean", "setting": "[1]; substrate concentration 2%, heat treatment of enzyme no, reaction time 3 h", "value": 17.0},
      {"measurement": "Decomposition efficiency of genistin family in defatted soybean", "setting": "[1]; substrate concentration 2%, heat treatment of enzyme no, reaction time 6 h", "value": 11.4},
      {"measurement": "Decomposition efficiency of genistin family in defatted soybean", "setting": "[1]; substrate concentration 2%, heat treatment of enzyme yes, reaction time 6 h", "value": 41.8},
      {"measurement": "Decomposition efficiency of genistin family in defatted soybean", "setting": "[1]; substrate concentration 5%, heat treatment of enzyme no, reaction time 0 h", "value": 43.9},
      {"measurement": "Decomposition efficiency of genistin family in defatted soybean", "setting": "[1]; substrate concentration 5%, heat treatment of enzyme no, reaction time 1 h", "value": 38.0},
      {"measurement": "Decomposition efficiency of genistin family in defatted soybean", "setting": "[1]; substrate concentration 5%, heat treatment of enzyme no, reaction time 3 h", "value": 29.6},
      {"measurement": "Decomposition efficiency of genistin family in defatted soybean", "setting": "[1]; substrate concentration 5%, heat treatment of enzyme no, reaction time 6 h", "value": 19.0},
      {"measurement": "Decomposition efficiency of genistin family in defatted soybean", "setting": "[1]; substrate concentration 5%, heat treatment of enzyme yes, reaction time 6 h", "value": 41.1},
      {"measurement": "Decomposition efficiency of genistin family in defatted soybean", "setting": "[1]; substrate concentration 10%, heat treatment of enzyme no, reaction time 0 h", "value": 41.6},
      {"measurement": "Decomposition efficiency of genistin family in defatted soybean", "setting": "[1]; substrate concentration 10%, heat treatment of enzyme no, reaction time 1 h", "value": 41.5},
      {"measurement": "Decomposition efficiency of genistin family in defatted soybean", "setting": "[1]; substrate concentration 10%, heat treatment of enzyme no, reaction time 3 h", "value": 35.1},
      {"measurement": "Decomposition efficiency of genistin family in defatted soybean", "setting": "[1]; substrate concentration 10%, heat treatment of enzyme no, reaction time 6 h", "value": 29.1},
      {"measurement": "Decomposition efficiency of genistin family in defatted soybean", "setting": "[1]; substrate concentration 10%, heat treatment of enzyme yes, reaction time 6 h", "value": 39.4},
      {"measurement": "aglycon", "setting": "[2]; Reaction time 0 h", "value": 0},
      {"measurement": "glucoside", "setting": "[2]; Reaction time 0 h", "value": 100},
      {"measurement": "aglycon", "setting": "[2]; Reaction time 1 h", "value": 3.1},
      {"measurement": "glucoside", "setting": "[2]; Reaction time 1 h", "value": 96.9},
      {"measurement": "aglycon", "setting": "[2]; Reaction time 3 h", "value": 7},
      {"measurement": "glucoside", "setting": "[2]; Reaction time 3 h", "value": 93},
      {"measurement": "aglycon", "setting": "[2]; Reaction time 6 h", "value": 12.1},
      {"measurement": "glucoside", "setting": "[2]; Reaction time 6 h", "value": 87.9}
    ]}
  ]
}
